Laboratory results reported in patent EP4227307A1 (Genzyme Corporation, priority 2022, dated 2023).
Where a name gives a salt, the structure may show the parent alone.

Target: T1, human recombinant 6His-Nterm SHP2 full-length (Thr2-Arg593) (Homo sapiens, UniProt Q06124)
T1 construct: 6His-Nterm SHP2 full-length (Thr2-Arg593, R&D system); 6His (N); purchased R&D system
T1 sequence (Q06124 2-593): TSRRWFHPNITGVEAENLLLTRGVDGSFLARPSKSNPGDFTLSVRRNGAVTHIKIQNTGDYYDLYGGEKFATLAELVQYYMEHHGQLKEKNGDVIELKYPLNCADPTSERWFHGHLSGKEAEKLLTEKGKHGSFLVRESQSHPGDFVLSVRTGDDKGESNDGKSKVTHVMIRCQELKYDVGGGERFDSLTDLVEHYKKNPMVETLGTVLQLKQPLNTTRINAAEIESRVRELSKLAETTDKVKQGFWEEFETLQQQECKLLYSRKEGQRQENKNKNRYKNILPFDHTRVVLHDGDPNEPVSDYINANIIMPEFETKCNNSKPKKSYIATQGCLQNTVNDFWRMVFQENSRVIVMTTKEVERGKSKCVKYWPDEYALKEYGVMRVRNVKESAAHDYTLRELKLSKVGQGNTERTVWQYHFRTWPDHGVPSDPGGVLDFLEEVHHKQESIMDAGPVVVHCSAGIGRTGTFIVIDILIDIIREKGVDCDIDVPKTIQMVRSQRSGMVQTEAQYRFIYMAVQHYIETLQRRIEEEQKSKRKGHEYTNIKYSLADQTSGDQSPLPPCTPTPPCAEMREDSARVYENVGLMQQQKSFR
Experiment: SHP2 Phosphatase Assay (DiFMUP fluorescence)
Assay type: biochemical
Conditions: SHP2 0.2 nM pre-incubated with 100 nM bi-phosphorylated activating peptide; compound 1000-0.05 nM, 30 min pre-incubation; DiFMUP 20 µM, 45 min, room temperature; 10-concentration dose-response
How it was run: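 SHP2 (0.2 nM) preactivated ≥10 min with 100 nM bis-phosphorylated peptide, then 30 min with compound (10 concentrations, 1000–0.05 nM) at room temperature, pH 7.2 HEPES buffer with DTT. DiFMUP (20 µM, added solution) reacted 45 min, pervanadate-stopped; fluorescence 350/450 nm. IC50 by 4-parameter logistic fit.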

Structure (SMILES)	IC50
Cc1nc(N2CCC3(CC2)Cc2nc(O)ccc2[C@H]3N)c2ccnn2c1-c1cccc(F)c1F [Compound 222, (5S)-5-amino-1'-[7-(2,3-difluorophenyl)-6-methyl-pyrazolo[1,5-a]pyrazin-4-yl]spiro[5,7-dihydrocyclopenta[b]pyridine-6,4'-piperidine]-2-ol hydrochloride]	0.001 µM
Cc1nc(N2CCC3(CC2)Cc2nc(CO)ccc2[C@H]3N)c2ccnn2c1-c1ccccc1 [Compound 223, [(5S)-5-amino-1'-(6-methyl-7-phenyl-pyrazolo[1,5-a]pyrazin-4-yl)spiro[5,7-dihydrocyclopenta[b]pyridine-6,4'-piperidine]-2-yl]methanol]	0.013 µM
Cc1nc2c(o1)[C@@H](N)C1(CCN(c3nc(C)c(-c4ccccc4F)n4nccc34)CC1)C2 [Compound 224, (6S)-1'-[7-(2-fluorophenyl)-6-methyl-pyrazolo[1,5-a]pyrazin-4-yl]-2-methyl-spiro[4,6-dihydrocyclopenta[d]oxazole-5,4'-piperidine]-6-amine]	0.027 µM
COCc1cnn2c(-c3ccccc3F)c(C)nc(N3CCC4(CC3)Cc3ncccc3[C@H]4N)c12 [Compound 225, (5S)-1'-[7-(2-fluorophenyl)-3-(methoxymethyl)-6-methyl-pyrazolo[1,5-a]pyrazin-4-yl]spiro[5,7-dihydrocyclopenta[b]pyridine-6,4'-piperidine]-5-amine]	> 1 µM
Cc1nc(N2CCC3(CC2)Cc2ncccc2[C@H]3N)c2ccnn2c1-c1cccn(C)c1=O [Compound 227, 3-[4-[(5S)-5-aminospiro[5,7-dihydrocyclopenta[b]pyridine-6,4'-piperidine]-1'-yl]-6-methyl-pyrazolo[1,5-a]pyrazin-7-yl]-1-methyl-pyridin-2-one]	> 1 µM
Cc1nc(N2CCC3(CC2)Cc2ncccc2[C@H]3N)c2ccnn2c1-c1ccn(C)c(=O)c1F [Compound 228, 4-[4-[(5S)-5-aminospiro[5,7-dihydrocyclopenta[b]pyridine-6,4'-piperidine]-1'-yl]-6-methyl-pyrazolo[1,5-a]pyrazin-7-yl]-3-fluoro-1-methyl-pyridin-2-one]	0.086 µM
Cc1nccc(Sc2c(C)nc(N3CCC4(CC3)Cc3ncccc3[C@H]4N)c3ccnn23)c1F [Compound 229, (5S)-1'-[7-[(3-fluoro-2-methyl-4-pyridyl)sulfanyl]-6-methyl-pyrazolo[1,5-a]pyrazin-4-yl]spiro[5,7-dihydrocyclopenta[b]pyridine-6,4'-piperidine]-5-amine]	0.014 µM
Cc1nc(N2CCC3(CC2)Cc2ncccc2[C@H]3N)c2ccnn2c1Sc1cccnc1C(F)(F)F [Compound 230, (5S)-1'-(6-methyl-7-((2-(trifluoromethyl)pyridin-3-yl)thio)pyrazolo[1,5-a]pyrazin-4-yl)-5,7-dihydrospiro[cyclopenta[b]pyridine-6,4'-piperidin]-5-amine]	0.015 µM
Cc1nccc(Sc2c(C)nc(N3CCC4(CC3)Cc3ncccc3[C@H]4N)c3ccnn23)c1Cl [Compound 231, (S)-1'-(7-((3-chloro-2-methylpyridin-4-yl)thio)-6-methylpyrazolo[1,5-a]pyrazin-4-yl)-5,7-dihydrospiro[cyclopenta[b]pyridine-6,4'-piperidin]-5-amine]	0.008 µM
Cc1nc(N2CCC3(CC2)Cc2ncccc2[C@H]3N)c2ccnn2c1Sc1ccnc(N)c1Cl [Compound 232, (5S)-1'-[7-[(2-amino-3-chloro-4-pyridyl)sulfanyl]-6-methyl-pyrazolo[1,5-a]pyrazin-4-yl]spiro[5,7-dihydrocyclopenta[b]pyridine-6,4'-piperidine]-5-amine]	0.004 µM
